Series [1] deals with T1, CYP3A4 (Homo sapiens, UniProt P08684).
T1 construct: purchased Corning; host or cells: insect cells (microsomes)
The series is described as follows: Fluorometric CYP450 inhibition assay, CYP3A4. In kind it is in vitro ADME. The settings on record: read-out: CYP450 IC50 (μM) 3A4. Here is the method:
The CYP450 inhibition assays utilized microsomes from insect cells expressing human recombinant individual cDNA-expressed CYP isoforms 3A4 and 2D6, as well as the fluorogenic probe that produces fluorescent metabolite. Standard inhibitors were co-incubated with fluorogenic substrates and their inhibitory potential (IC50) was determined. Assay conditions in terms of CYP450 protein concentration and time of incubation were standardized, enzyme kinetics parameters of each fluorescent probe substrate were estimated and IC50 values of inhibitors were determined and validated on different days to check reproducibility.
A 100 mM sodium phosphate buffer was prepared and adjusted to pH 7.4. In a separate falcon tube, a 2× enzyme/substrate (E/S) solution was prepared in phosphate buffer. The final concentration of CYP2D6 (CORNING®) and 7-amido-4-methyl coumaric acid (AMMC) was 10 nM and 4 μM, and CYP3A4 (CORNING®) and 7-benzyloxy-4-(trifluoromethyl) coumarin (BFC) was 20 nM and 40 μM, respectively. In a separate falcon tube, a 2×NADPH regenerating system (NRS) was prepared in phosphate buffer.
Both enzymatic assays were conducted in a 96-well microtiter plate (Black, CORNING® COSTAR®) with a final volume of 100 μL. Preparation of the plate began with the addition of 74 μL of the E/S in the first well, and 50 μL to all subsequent wells (from 2-11). […] A 1:3 serial dilution of the test compound was conducted by removing 25 μL from the first well and diluting it with the second and so forth until the tenth row. Final concentrations yielded a range from 200 μM-0.01 μM. Well no. 11 contained no inhibitor, and well no. 12 contained no enzyme. Both were used as controls for background fluorescence. The plate was incubated for 30 min at 37° C. After incubation, the reaction was initiated by the addition of 50 μL of the 2×NRS to each well.
Immediately (within 1 min) the fluorescence was measured using a microplate reader (BIOTEK® Synergy Neo2). […] Data was exported and analyzed using Graph Pad Prism 7. […] The IC50 value was derived after the data was fitted on a 10-point curve using a four-parameter logistic regression model.

A short description of series [2]: Metabolic stability assay, human liver microsomes (HLM). In kind it is in vitro ADME. The settings on record: for half-life at 3 µM: pH 7.4, read-out: Liver Microsomes T1/2 (min) H. The text has this:
Controls were processed and analyzed like the test compounds.
A general note: Microsomes from liver hold many membrane-bound enzymes, among them those of drug oxidation.

Series [3] deals with CXCR4 (Homo sapiens, UniProt P61073). Put plainly: cAMP assay in CXCR4-CHO-Glo cells (GloSensor, forskolin + SDF-1α). In kind it is cell-based. More on the design: expressed in transfected cells. The source says: Materials, reagents, and instrument—Advanced DMEM (Gibco), trypsin EDTA (0.05%, phenol red), L-glutamine, HBSS buffer with and without Ca^2+/Mg^2+ (Gibco), antibiotic-antimycotic (Gibco), hygromycin B, and geneticin selective antibiotic (G418 sulfate) were purchased from Invitrogen. Forskolin (Tocris), SDF-1α (R&D Systems), HEPES (Sigma Aldrich), FBS (Atlanta Biologicals), D-luciferin (Gold Biotechnology), sterile 60 mm tissue culture dishes, and 96-well sterile tissue culture plates were purchased from Corning.
The assay targeted CXCR4 expressed in CHO-gloSensor cells. It monitored GPCR activation based on forskolin-stimulated cAMP production in cells. The assay used a genetically encoded biosensor with its cAMP binding domain fused to luciferase. Binding of cAMP to the cAMP binding domain changed the conformation of the biosensor, leading to the activation of luciferase. The intensity of the luciferase signal (light output) resulted from the oxidation of D-luciferin to oxyluciferin is proportional to the amount of cAMP produced in the cells.
The assay was performed in triplicate using live cells in 96-well tissue culture plates. Cells were pre-incubated in the dark at room temperature for one hour in the presence of D-luciferin. Bioluminescence was quantified before and after the agonist/antagonist addition. Stock solution of forskolin and SDF-1a, was prepared in Locke-Luc buffer. Stock solutions of the test compounds were prepared in DMSO (10 mM); they were diluted by Locke's buffer for use in the assay.
CHO-Glo cells, a cell line stably expressing the GloSensor cAMP biosensor (Promega), were transfected with cDNA encoding human CXCR4 in Pires-AcGFP1 (Clontech) and a stable cell line was isolated (CXCR4-CHO-Glo cells). The CXCR4-CHO-Glo cells were grown to confluency on 60 mm tissue culture dishes. After trypsinization, the cells were plated on 96-well plates and incubated overnight. The next day, culture media in each well was aspirated and replaced with 100 μL Locke's buffer containing 4 mM D-luciferin, followed by incubation in the dark for one hour. Before the addition of agonist/antagonist, each plate was read five times at 2 min intervals to obtain basal bioluminescence values from each well. The average of these five pre-readings was used to normalize each well's response to account for differences in GloSensor expression and cell density. After five pre-readings, cAMP formation was initiated with the addition of 50 μL solution of test compound (TC) in Locke Luc buffer containing forskoline and SDF-1α. […] Luminescence was measured immediately after the addition of the antagonist solution. The measurements were taken every two minutes for 30 minutes in kinetics mode after antagonist addition. IC50 values were calculated from the 4-parameter logistic equation using Prism GraphPad.

Series [4] can be described thus: PAMPA assay. The series is classed as in vitro ADME. The settings on record: pH 7.4. The procedure: PAMPA assay was performed by BioAssay Systems Services or Bristol Myers Squibb. The method used by BioAssay Systems Services is described below.
Stock solutions in DMSO for all compounds (10 mM) were thawed. The assay was performed in duplicate by following the PAMPA-096 procedure for sample plating. 4% Lecithin in dodecane solution was prepared by resuspending the dried lecithin with 750 μL dodecane. PBS pH 7.4 was used as the diluent. Two sets of plates and equilibrium solutions were incubated for 4 hours at room temperature. Acceptor and equilibrium solutions were analyzed in a UV plate. OD280 nm was used for High Permeability Control (chloramphenicol). OD270 nm was used for Medium Permeability Control (diclofenac) and Low Permeability Control (theophylline). OD254 nm was used for the test compounds.
Data analysis was performed by using the peak absorbance for each respective test compound and Permeability Control to determine the Permeability Rate (Pe) via the following equation: […]
where ODA is the absorbance of Acceptor Solution, ODE is the absorbance of the Equilibrium Standard, and C is determined by the equation below: […]
where Donor Volume (VD) is 0.2 cm^3, Acceptor Volume (VA) is 0.3 cm^3, and Membrane Area (Area) is 0.24 cm^2.
For orientation: PAMPA measures passive passage across an artificial lipid membrane.

Nine compounds from US12692259B2, “Morpholine-containing and piperazine-containing CXCR4 modulators and uses related thereto” (Emory University, priority 2021, dated 2026) can be followed below.

Usually IC50 stands for the concentration that inhibits the measured activity by half. A word on the Papp: it is a coefficient for how fast a substance crosses the barrier.

CXCR4, sequence (P61073 whole entry): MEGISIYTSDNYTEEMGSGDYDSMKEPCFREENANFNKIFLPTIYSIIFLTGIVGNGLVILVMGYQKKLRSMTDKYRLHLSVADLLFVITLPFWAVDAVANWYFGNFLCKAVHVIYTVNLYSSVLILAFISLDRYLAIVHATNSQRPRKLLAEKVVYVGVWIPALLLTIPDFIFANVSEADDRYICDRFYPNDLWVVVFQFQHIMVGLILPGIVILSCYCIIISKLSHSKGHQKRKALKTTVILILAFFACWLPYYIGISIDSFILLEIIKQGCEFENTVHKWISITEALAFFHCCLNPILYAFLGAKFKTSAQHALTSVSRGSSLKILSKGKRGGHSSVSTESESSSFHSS
T1 sequence (P08684 whole entry): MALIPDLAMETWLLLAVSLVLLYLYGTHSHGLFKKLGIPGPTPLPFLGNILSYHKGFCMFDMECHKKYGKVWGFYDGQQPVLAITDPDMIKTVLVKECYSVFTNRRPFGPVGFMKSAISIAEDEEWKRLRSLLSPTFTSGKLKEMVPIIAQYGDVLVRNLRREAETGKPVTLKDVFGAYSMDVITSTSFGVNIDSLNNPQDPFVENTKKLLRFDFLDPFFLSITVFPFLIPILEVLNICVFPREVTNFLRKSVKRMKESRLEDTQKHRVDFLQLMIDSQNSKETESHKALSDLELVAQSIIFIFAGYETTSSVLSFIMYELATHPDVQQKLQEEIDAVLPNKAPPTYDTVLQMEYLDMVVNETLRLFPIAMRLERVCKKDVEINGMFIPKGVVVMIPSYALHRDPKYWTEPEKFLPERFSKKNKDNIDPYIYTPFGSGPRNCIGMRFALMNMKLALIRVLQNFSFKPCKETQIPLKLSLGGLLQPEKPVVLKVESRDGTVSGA

`CN(C[C@H]1Cc2c(cccc2N2CC3COC2C3)CN1)[C@H]1CCCc2cccnc21` (stereo in doubt) [EMU-324, (S)—N—(((R)-5-((1S,4R)-2-oxa-6-azabicyclo[2.2.1]heptan-6-yl)-1,2,3,4-tetrahydroisoquinolin-3-yl)methyl)-N-methyl-5,6,7,8-tetrahydroquinolin-8-amine]: the IC50 in series [1] is 3.5 µM; in series [3] it was 0.055 µM. Also, the “Liver Microsomes % rem. @ 10 min. H” value in series [2] is listed as 48.5%. In series [4], this compound gave a Papp at 4 h of 106 nm/s.
For `CN1CCN(c2cccc3c2C[C@@H](CN(C)[C@H]2CCCc4cccnc42)NC3)C(=O)C1` [EMU-251, 4-methyl-1-((S)-3-((methyl((S)-5,6,7,8-tetrahydroquinolin-8-yl)amino)methyl)-1,2,3,4-tetrahydroisoquinolin-5-yl)piperazin-2-one], the IC50 in series [1] was 48.4 µM; in series [3], 0.244 µM. Moreover, the half-life at 3 µM in series [2] was determined as 288 min. In series [4], this compound came in with a Papp at 4 h of 146 nm/s.
On to `CN(C[C@H]1Cc2c(cccc2N2CCNC(=O)C2)CN1)[C@H]1CCCc2cccnc21` [EMU-254, 4-((R)-3-((methyl((S)-5,6,7,8-tetrahydroquinolin-8-yl)amino)methyl)-1,2,3,4-tetrahydroisoquinolin-5-yl)piperazin-2-one], for which the IC50 in series [1] worked out at 14.3 µM; in series [3] it was 0.0316 µM. For the same compound, the half-life at 3 µM in series [2] worked out at 37 min. In series [4], this compound returned an apparent permeability (Papp) at 4 h of 118 nm/s.
With `CN1CCN(c2cccc3c2C[C@H](CN(C)[C@H]2CCCc4cccnc42)NC3)CC1=O` [EMU-255, 1-methyl-4-((R)-3-((methyl((S)-5,6,7,8-tetrahydroquinolin-8-yl)amino)methyl)-1,2,3,4-tetrahydroisoquinolin-5-yl)piperazin-2-one], the 50% inhibitory concentration (IC50) stood at 13.7 µM in series [1] and 0.0693 µM in series [3]. Moreover, in series [2], the half-life at 3 µM turned out to be 16 min. Besides, the Papp at 4 h in series [4] came out at 136 nm/s.
The corresponding values for `CCOC(=O)N1CCN(c2cccc3c2C[C@H](CN(C)[C@H]2CCCc4cccnc42)NC3)CC1` [EMU-261, ethyl 4-((R)-3-((methyl((S)-5,6,7,8-tetrahydroquinolin-8-yl)amino)methyl)-1,2,3,4-tetrahydroisoquinolin-5-yl)piperazine-1-carboxylate] are 7.82 µM, 0.0037 µM, 4.9 min and 146 nm/s.
The corresponding values for `CC(=O)N1CCN(c2cccc3c2C[C@H](CN(C)[C@H]2CCCc4cccnc42)NC3)CC1` [EMU-262, 1-(4-((R)-3-((methyl((S)-5,6,7,8-tetrahydroquinolin-8-yl)amino)methyl)-1,2,3,4-tetrahydroisoquinolin-5-yl)piperazin-1-yl)ethan-1-one] are 16.3 µM, 0.0146 µM, 16 min and 146 nm/s.
Taken in the same sequence, the figures for `CN(C[C@H]1Cc2c(cccc2N2CCN(S(C)(=O)=O)CC2)CN1)[C@H]1CCCc2cccnc21` [EMU-263, (S)—N-methyl-N—(((R)-5-(4-(methylsulfonyl)piperazin-1-yl)-1,2,3,4-tetrahydroisoquinolin-3-yl)methyl)-5,6,7,8-tetrahydroquinolin-8-amine] were 24.1 µM, 0.0483 µM, 10 min and 134 nm/s.
With `CN1CCN(c2cccc3c2CC(CN(C)[C@H]2CCOc4cccnc42)NC3)CC1` (stereo partly drawn) [EMU-320, (4S)—N-methyl-N-((5-(4-methylpiperazin-1-yl)-1,2,3,4-tetrahydroisoquinolin-3-yl)methyl)-3,4-dihydro-2H-pyrano[3,2-b]pyridin-4-amine], the half-inhibitory concentration (IC50) in series [1] is 3.2 µM; in series [3], 0.0289 µM. Besides, the “Liver Microsomes % rem. @ 10 min. H” value in series [2] was 74.7%. The same compound displayed a Papp at 4 h in series [4] of 167 nm/s.
In the case of `CN(C[C@H]1Cc2c(cccc2N2CCN3CCOC[C@H]3C2)CN1)[C@H]1CCCc2cccnc21` [EMU-343, (S)—N—(((R)-5-((R)-hexahydropyrazino[2,1-c][1,4]oxazin-8(1H)-yl)-1,2,3,4-tetrahydroisoquinolin-3-yl)methyl)-N-methyl-5,6,7,8-tetrahydroquinolin-8-amine], the figures for the IC50 in series [1] and in series [3] were above 20 µM and 0.00615 µM, respectively. Also, the “Liver Microsomes % rem. @ 10 min. H” value in series [2] turned out to be 23.7%.
